Results reported in paper PMC6724193 (ACS infectious diseases, 2019).

What was measured:
M. tuberculosis H37Rv = type: cell-based
[1] = test system: drug susceptible and drug-resistant M. tuberculosis strains; type: cell-based

Compound | agar MIC (M. tuberculosis H37Rv) [µM] | fold increase of MIC of resistant mutant over WT H37Rv (M. tuberculosis H37Rv) | frequency of resistance (FOR) (M. tuberculosis H37Rv) | fold increase in MIC (M. tuberculosis H37Rv) | MICs (range over strains) [1] [µM]
O=C(O)CCCCCC1NC(=O)CS1 (racemic) [(±)-acidomycin, 6-(4-Oxothiazolidin-2-yl)hexanoic acid] | 12 | approximately 16 fold | less than or equal to 1 × 10^−8 |  | 
O=C(O)CCCCCC1NC(=O)CS1 (stereo not drawn) [acidomycin] |  | 16 fold |  | two- to three-fold | 0.096 to 6.2
